Three compounds from patent US5266576A, “N-myristoyl transferase inhibitors” (Adir et Compagnie, priority 1991, dated 1993) can be followed below.

Structures are written as SMILES. Read-outs that look alike come from different tables or passages of the source.

Data set [1] concerns HL60 cells. The data set is described as follows: Differentiation of cultured HL60 cells. It counts as cell-based, human. The method, then:
Cultured HL60 cells are treated for 6 days with the compounds dissolved in a minimum of methanol at 9 different concentrations. The doses chosen encompass the IC50 determined beforehand using the MTT test (Carmichael et al., Cancer Res., 1986, 47, 936).
The cells are washed (450 μl), resuspended in the same volume of complete medium and incubated for 1 hour at 37° C. in the presence of 7 ug/ml of DNA-specific fluorochrome.
The measurements, which are carried out by means of a laser cytometer, make it possible to estimate the percentage of cells accumulated, and therefore differentiated, in the G0 and G1 phase of the cell cycle.

Data set [2] addresses T1, cytosolic NMT (N-myristoyltransferase) of L1210 cells (Mus musculus, UniProt O70310).
T1 construct: The supernatant is then used as a source of NMT; endogenous in cells; host or cells: L1210 murine leukemia cells, cytosol (105,000 g supernatant)
T1 sequence (O70310 1-496): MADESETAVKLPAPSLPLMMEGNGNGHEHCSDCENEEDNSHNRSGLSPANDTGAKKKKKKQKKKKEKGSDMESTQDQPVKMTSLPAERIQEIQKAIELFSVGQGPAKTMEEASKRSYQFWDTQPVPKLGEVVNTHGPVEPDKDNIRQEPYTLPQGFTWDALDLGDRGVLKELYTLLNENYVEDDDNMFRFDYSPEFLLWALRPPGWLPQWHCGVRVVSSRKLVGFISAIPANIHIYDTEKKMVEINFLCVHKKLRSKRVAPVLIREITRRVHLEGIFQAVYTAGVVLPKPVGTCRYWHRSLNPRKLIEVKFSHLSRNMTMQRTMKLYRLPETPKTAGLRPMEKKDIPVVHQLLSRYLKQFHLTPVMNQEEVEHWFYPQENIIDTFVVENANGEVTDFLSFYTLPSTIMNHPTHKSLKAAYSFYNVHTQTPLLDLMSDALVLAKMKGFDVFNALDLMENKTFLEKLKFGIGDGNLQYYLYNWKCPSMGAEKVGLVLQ
Description: Inhibition of the cytosolic NMT activity of cancerous L1210 cells. It counts as biochemical, murine. The method, then:
Mass-cultured L1210 cells (murine leukemia) are used as a source of […].
They are cultured in RPMI 1640 supplemented with 50 U/ml of penicillin, […] of streptomycin, 2 mM of glutamine, 10 mM HEPES and 10% of fetal calf serum, maintained in a 5% CO2 /95% air atmosphere and at 37° C.
They are harvested and then washed in PBS by centrifuging at low speed. The final cell pellet is resuspended in a 50 mM HEPES buffer, pH 7.4, containing 2 mM EGTA, 1 mM DTT and 1 mM PMSF. The cells are opened by sonication at 4° C. and homogenized by a to and fro movement in a glass/glass Potter. The cell homogenate is then centrifuged at low speed (10,000 rpm, 10 minutes) in order to precipitate the cell debris and the supernatant is subjected to ultracentrifugation at 105,000 g for 1 hour.
The supernatant is then used as a source of NMT. The measurement of activity is carried out according to the method described by Towler and Glazer (PNAS, 1986, 83, 2812) using as substrate peptide either the peptide derived from the NH2 terminal of the pp60src oncogene product: GSSKSKPKDP (DP), or the peptide derived from the NH2 terminal of the gag product, a structural protein of the Maloney murine leucemic virus: GQTVTTPL (T3) at a final concentration of 0.3 mM.

The target of data set [3] is T2, microsomal NMT of CEM cells (Homo sapiens, UniProt P30419).
T2 construct: The pellet (microsomes) and the supernatant (cytosol) are recovered independently and then frozen; endogenous in cells; host or cells: CEM immortalized T lymphocytes, microsomal pellet (105,000 g), treated with Triton 770
T2 sequence (P30419 1-496): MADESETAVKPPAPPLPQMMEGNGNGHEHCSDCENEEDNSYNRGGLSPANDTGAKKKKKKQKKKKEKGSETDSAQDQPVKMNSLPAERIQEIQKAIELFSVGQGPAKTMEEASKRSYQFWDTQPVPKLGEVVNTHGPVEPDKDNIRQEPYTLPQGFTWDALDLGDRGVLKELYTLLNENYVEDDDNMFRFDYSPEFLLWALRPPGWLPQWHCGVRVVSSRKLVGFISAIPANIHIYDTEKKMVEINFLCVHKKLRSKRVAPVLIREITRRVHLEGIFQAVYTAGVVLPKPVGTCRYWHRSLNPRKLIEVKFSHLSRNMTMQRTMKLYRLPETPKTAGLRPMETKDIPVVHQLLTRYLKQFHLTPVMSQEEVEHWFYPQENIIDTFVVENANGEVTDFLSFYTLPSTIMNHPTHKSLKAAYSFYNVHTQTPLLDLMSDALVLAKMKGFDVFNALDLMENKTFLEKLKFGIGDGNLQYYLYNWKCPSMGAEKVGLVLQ
Description: Inhibition of the myristoylation of a gag-derived peptide of HIV-1 (subtype BRU), microsomal fraction of CEM cells. The note with it: 20-AA p18 peptide of HIV-1 (subtype BRU), 30 minutes at 37° C., read-out: IC50 during incubation with the microsomal fraction. It counts as biochemical. The method, then: Immortalized T lymphocytes (CEM) are mass- cultured as described in Example 57, and then harvested by centrifugation and washed in PBS.
These cells are sonicated (3 brief periods of 10 seconds) and then homogenized in a glass/glass Potter.
This homogenate, in which all the cells have been opened (checked under a microscope), is subjected to centrifugation for 1 h 10) at 105,000 g. The pellet (microsomes) and the supernatant (cytosol) are recovered independently and then frozen.
The NMT activity is then measured following the procedure of Towler and Glaser but stopping the reaction with […] of acetonitrile in order to avoid precipitation of the myristoylated peptide. This 20-AA peptide: NH2^[…] COOH, is derived from p18 of the HIV-1 virus (subtype BRU).
These experimentations are carried out using a cytosolic (40 μl) or microsomal (20 μl treated with 4 μl of 10% Triton 770) source of CEM cells in the presence of increasing concentrations of the compounds of the invention (1 to 1,000 μM, final). The samples, incubated for 30 minutes at 37° C. and stopped with 200 μl of acetonitrile, are then analyzed by HPLC and the myristoylation of p18 quantified.

Data set [4] in a line: Toxicity on CEM cells in the HIV protection test. It counts as cell-based. The conditions noted are these: human, method of WEISLOW et al., unit printed m, read-out: toxicity (IC50). The source says: The method used is described by WEISLOW et al. (J. Natl. Cancer Inst., 1989, 81, 577).
Data set [5] relates to HIV-1 virus. The data set is described as follows: Protective effect on CEM cells against infection by the HIV virus. It counts as cell-based. The source says:
The method used is described by […] et al. (J. Natl. Cancer Inst., 1989, 81, 577).

Where [6] appears, read: HL60 cells, 6 days, cells accumulated in G0 and G1 phase, laser cytometer.

The IC50 is the midpoint of a concentration-inhibition curve. As to `CCCCCCCCCCCCCC(=O)N1Cc2ccccc2C[C@H]1C(=O)O` [Example 1, N-Myristoyl-3-(S)-carboxy-(1,2,3,4)-tetrahydroisoquinoline], in data set [1] (setting [6]), the “doses to which the marked differentiating effect can extend” value was “below 50 ug/ml”. Besides, the IC50 turned out to be 0.18 µM in data set [2] (cytosolic NMT of L1210 cells, substrate peptide DP (pp60src) or T3 (gag), 0.3 mM, read-out: IC50) and 100 µM in data set [3].
Regarding `CCCCCCCCCCCCCC(=O)NC(Cc1ccccc1)P(=O)(O)OCC` (stereo not drawn) [Example 16, ETHYL 1-MYRISTOYLAMINO-2-[…]], the “doses to which the marked differentiating effect can extend” value in data set [1] (144 h) is listed as “below 50 ug/ml”. Moreover, inhibition in data set [2] was half-maximal at 2 µM (IC50).
By EC50 is commonly meant the concentration at which the effect is half-maximal. Lower therefore signals an effect from little substance. As to `COCCCCCCCCCCCC(=O)N[C@@H](Cc1ccccc1)C(=O)O` [Example 49, N-(12-METHOXYLAUROYL)-(S)-PHENYLALANINE], in data set [4], the CC50 worked out at 200 µM. The “doses to which the marked differentiating effect can extend” value in data set [1] (setting [6]) was “below 50 ug/ml”. This compound also returned an EC50 in data set [5] (Human immunodeficiency virus 1, CCRF-CEM, HIV infection, method of WEISLOW et al.) of 10 µM. This compound registered a therapeutic index in data set [5] (toxicity IC50 / protective EC50) of 20.
